test system: T1, GCaMP5-expressing T. gondii; design: species or system GCaMP5-expressing Toxoplasma gondii, extracellular; GCaMP5 fluorescence (cytosolic Ca2+) after 100 uM zaprinast in compound-pretreated extracellular parasites, background-subtracted, relative to zaprinast alone; details: 100 uM zaprinast stimulation; 10 min pretreatment; mean of two replicates; 0.23 h
T1 construct: whole extracellular parasites expressing GCaMP5 Ca2+ sensor
Summary of the method: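 Read-out is GCaMP5 calcium fluorescence (ex 485/em 525 nm) taken 4 min after 100 μM zaprinast at 37 °C, following 10 min compound pretreatment at 10 μM in duplicate biological replicates. Values are basal-subtracted fold change versus zaprinast-only controls; parasites held extracellular in Ringer's solution.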

SMILES | fold change in fluorescence relative to zaprinast alone
COc1cc(Nc2nccc(N3CCC(NC(=O)Nc4ccc5c(c4)OCO5)C3)n2)cc(OC)c1OC (centres unmarked) [GSK1379766A] | 1.478
COC(=O)c1cccc(NC(=O)NC2CCN(c3ccnc(Nc4cc(OC)c(OC)c(OC)c4)n3)C2)c1 (centres unmarked) [GSK1379767A] | 1.23
COc1ccc(CNC(=O)NC2CCN(c3ccnc(Nc4ccc(F)cc4)n3)CC2)cc1 [GSK1379788A] | 1.01
O=C(Nc1ccccc1F)NC1CCN(c2ccnc(Nc3ccc(F)cc3)n2)CC1 [GSK1379800A] | 0.9564
COc1ccc(Nc2nccc(N3CCC(NC(=O)C(C)c4ccc(Cl)cc4)CC3)n2)cc1 (centres unmarked) [GSK1379812A] | 1.185
COc1cc(Nc2nccc(N3CCC(NS(=O)(=O)c4ccc(NC(C)=O)cc4)CC3)n2)cc(OC)c1OC [GSK1379825A] | 1.055
O=C(Nc1ccc2c(c1)OCO2)NC1CCN(c2ccnc(NCc3ccc(F)cc3)n2)CC1 [GSK1379859A] | 0.7305
COC(=O)c1cccc(NC(=O)NC2CCN(c3ccnc(NCc4ccc(F)cc4)n3)CC2)c1 [GSK1379860A] | 0.8716
O=C(NCCNc1ccnc(Nc2ccc(F)cc2)n1)c1cc2ccccc2s1 [GSK1379874A] | 0.6895
Cc1ccc(C)c(NC(=O)NCCNc2ccnc(Nc3ccc(F)cc3)n2)c1 [GSK1379878A] | 1.583
COc1cccc(NC(=O)NCCNc2ccnc(Nc3ccc(F)cc3)n2)c1 [GSK1379879A] | 1.178
O=C(NCCNc1ccnc(Nc2ccc(F)cc2)n1)Nc1ccccc1F [GSK1379880A] | 1.302
O=C(NCCNc1ccnc(Nc2ccc(F)cc2)n1)Nc1ccc2c(c1)OCO2 [GSK1379882A] | 1.425
COC(=O)c1cccc(NC(=O)NCCNc2ccnc(Nc3ccc(F)cc3)n2)c1 [GSK1379883A] | 0.8839
COc1ccc(Nc2nccc(NCCNC(=O)c3cc4ccccc4s3)n2)cc1 [GSK1379896A] | 1.173
COc1ccc(Nc2nccc(NCCNC(=O)Nc3cc(C)ccc3C)n2)cc1 [GSK1379899A] | 1.713
COc1ccc(Nc2nccc(NCCNC(=O)Nc3ccccc3F)n2)cc1 [GSK1379901A] | 0.9014
O=C(NCCNc1ccnc(NCc2ccc(F)cc2)n1)c1cc2ccccc2s1 [GSK1379944A] | 0.7055
CCNCC(Cc1ccccc1)NC(=O)c1cc(Br)c(-c2ccnc3[nH]ccc23)s1 (centres unmarked) [GSK1383280A] | 0.5995
CC(C)NCC(Cc1ccccc1)NC(=O)c1cc(Br)c(-c2ccnc3[nH]ccc23)s1 (centres unmarked) [GSK1383281A] | 1.049
COc1ccc(C[C@@H](CN)NC(=O)c2cc(Br)c(-c3ccnc4[nH]ccc34)s2)cc1 [GSK1389063A] | 0.8633
COc1cc(N2CCN(C(C)C)CC2)ccc1Nc1nc(Nc2ccc(F)cc2C(=O)NC[C@@H](O)CO)c2cc[nH]c2n1 [GSK1392956A] | 1.138
Cc1ccc(NC(=O)c2ccc(Cl)c(Cl)c2)cc1-c1ccc(C(=O)Nc2ccncc2)cc1 [GSK1398460A] | 1.557
Cc1ccc(NC(=O)c2cccc(C#N)c2)cc1-c1ccc(C(=O)Nc2ccncc2)cc1 [GSK1398463A] | 1.609

SMILES | fold change in fluorescence relative to zaprinast alone
Cc1ccc(NC(=O)Nc2cccc(Cl)c2)cc1-c1ccc(C(=O)Nc2ccncc2)cc1 [GSK1398468A] | 0.4262
Cc1ccc(NC(=O)Nc2ccc(Cl)c(C(F)(F)F)c2)cc1-c1ccc(C(=O)Nc2ccncc2)cc1 [GSK1398470A] | 0.581
Cc1ccc(C)c(NC(=O)Nc2ccc(C)c(-c3ccc(C(=O)Nc4ccncc4)cc3)c2)c1 [GSK1398473A] | 1.092
COc1cccc(NC(=O)Nc2ccc(C)c(-c3ccc(C(=O)Nc4ccncc4)cc3)c2)c1 [GSK1398474A] | 1.231
Cc1cc(-c2ccnc(Nc3cccc(C#N)c3)n2)cc(C)c1O [GSK1440913A] | 0.3868
NC[C@H](Cc1ccc(C(F)(F)F)cc1)NC(=O)c1cc(Br)c(-c2ccnc3[nH]ccc23)s1 [GSK1487252A] | 0.4926
CNC(=O)c1ccccc1Nc1nc(Nc2cccc(CS(C)(=O)=O)c2)ncc1C [GSK1520489A] | 1.293
NS(=O)(=O)c1cccc(-c2ccc3ncc(N4CCOCC4)nc3c2)c1 [GSK1535721A] | 1.22
COc1ccc(Nc2ncc(C#N)c(Nc3ccccc3C(N)=O)n2)cc1N1CCN(C)CC1 [GSK1558669A] | 1.412
CNC(=O)c1ccccc1Nc1nc(Nc2ccc(N3CCOCC3)cc2)ncc1Cl [GSK1576028A] | 1.198
NC[C@H](CC1CCCCC1)NC(=O)c1cc(Br)c(-c2ccnc3[nH]ccc23)s1 [GSK1581427A] | 1.128
NC[C@H](CC1CCCCC1)NC(=O)c1ccc(-c2ccnc3[nH]ccc23)s1 [GSK1581428A] | 1.197
Nc1ncc(-c2ccc3nccc(-c4ccncc4)c3c2)cc1S(=O)(=O)N1CCOCC1 [GSK1627798A] | 1.041
CC(=O)N1CCN(c2ccc(Nc3nccc(-c4sc(C(C)C)nc4-c4cccc(NS(=O)(=O)c5ccccc5)c4)n3)cn2)CC1 [GSK1645872A] | 0.8017
CC(C)c1nc(-c2cccc(NS(=O)(=O)c3ccccc3)c2)c(-c2ccnc(Nc3ccc4c(c3)CN(C)CC4)n2)s1 [GSK1649598A] | 0.9359
Cc1cc(N2CCC(NS(=O)(=O)c3ccc(F)cc3)CC2)nc(Nc2cccc(C#N)c2)n1 [GSK1653537A] | 0.8395
COc1ccc(S(=O)(=O)NC2CCN(c3cc(C)nc(Nc4cccc(C#N)c4)n3)CC2)cc1 [GSK1653539A] | 0.8764
CC(=O)N1CCN(c2ccc(Nc3nccc(-c4sc(C(C)C)nc4-c4cccc(NS(=O)(=O)c5cccc(Cl)c5)c4)n3)cn2)CC1 [GSK1660437A] | 1.275
Cc1occc1-c1nc(N)c(OC[C@@H](N)Cc2c[nH]c3ccccc23)cc1-c1cc2c(C)[nH]nc2cn1 [GSK1660450B] | 1.179
Cc1cc(N2Cc3ccccc3C2)nc(Nc2ccc(S(=O)(=O)N3CCOCC3)cc2)n1 [GSK1669917A] | 1.107
CN(C)S(=O)(=O)c1cc(-c2ccc3nccc(-c4cccc(S(N)(=O)=O)c4)c3c2)cnc1N [GSK1669921A] | 1.101
Nc1ncc(-c2ccc3nccc(-c4ccncc4)c3c2)cc1S(=O)(=O)N1CCCCC1 [GSK1693850A] | 0.1427
CCCN1CCC(Oc2cc(Nc3nc(Nc4cccc(F)c4C(N)=O)c4cc[nH]c4n3)c(OC)cc2Cl)CC1 [GSK1713088A] | 1.364

— PMC4850295, “Using a Genetically Encoded Sensor to Identify Inhibitors of Toxoplasma gondii Ca^2+ Signaling” (The Journal of Biological Chemistry, 2016)
